This is an account of results in patent publication US6355443B1, “4-(4-hydroxystyryl) pyridine-containing substrates for an analyte dependent enzyme activation system” (priority 1999, dated 2002).

The target of data set [1] is T1, Horseradish peroxidase (HRP) conjugated wheat germ agglutinin (Armoracia rusticana, UniProt P00433).
T1 construct: purchased Sigma; St. Louis, Mo
T1 sequence (P00433 31-338 limits assumed): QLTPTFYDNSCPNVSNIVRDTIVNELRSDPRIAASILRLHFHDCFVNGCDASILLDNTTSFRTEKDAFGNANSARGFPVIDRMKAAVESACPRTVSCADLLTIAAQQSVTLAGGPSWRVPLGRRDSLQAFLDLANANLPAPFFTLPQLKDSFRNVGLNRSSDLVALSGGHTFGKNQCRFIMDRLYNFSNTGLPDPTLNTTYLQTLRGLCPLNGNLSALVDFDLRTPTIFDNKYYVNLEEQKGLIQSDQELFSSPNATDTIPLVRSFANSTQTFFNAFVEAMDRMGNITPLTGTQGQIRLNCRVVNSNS
Description: Sensitive HRP localization using a 4-(4-hydroxystyryl) pyridine containing compound. To be noted: sections of mouse intestine; for fluorescence labeling of tissue sections after HRP-catalyzed deposition: HRP-conjugated wheat germ agglutinin 0.5 μg/ml, substrate 100 μg/ml, 10 min, 360 nm excitation/>400 nm emission. As to the method:
Sections of paraffin-embedded mouse intestine were deparaffinized and non-specific binding sites blocked by treatment for thirty minutes in PBS-blocking buffer (PBS-BB; 0.1M phosphate buffered saline, pH 7.2; 1.0% bovine serum albumin, 0.2% non-fat powdered milk, and 0.3% Triton X-100). Horseradish peroxidase (HRP) conjugated wheat germ agglutinin (Sigma; St. Louis, Mo.) at a concentration of 0.5 μg/ml in PBS-BB was incubated on sections for one hour at room temperature. Control sections were incubated in PBS-BB alone. Sections were then washed in PBS (three X for five minutes each wash) and reacted for ten minutes at room temperature in a solution containing 4-(4-hydroxystyryl) pyridinium propylsulfonate (HPPS) (Molecular Biosciences; Boulder, Colo.) at 100 μg/ml in TSA Amplification Diluent, (NEN Life Science Products, Inc.; Boston, Mass.). Sections were then washed in PBS (three X for five minutes each wash), mounted in PBS:Glycerol (1:1) and coverslipped. Sections were viewed with a Zeiss Axioskop microscope equipped with epifluorescence and a filter set with excitation/emission characteristics of 360 nm peak excitation/>400 nm long pass emission. Photomicrographs were taken using a Zeiss MC100 camera system.

Data set [2] concerns the target T1, Horseradish peroxidase (HRP) conjugated wheat germ agglutinin. Description: Stability of deposited fluorescent reaction product in aqueous vs non-aqueous mounting medium. Here is the method: Sections of paraffin-embedded mouse intestine were deparaffinized and non-specific binding sites were blocked by treatment for thirty minutes in PBS-BB. HRP conjugated wheat germ agglutinin (Sigma), at a concentration of 0.5 μg/ml in PBS-BB, was incubated on sections for one hour at room temperature. Sections were then washed in PBS (three X for five minutes each wash) and were reacted for ten minutes at room temperature in a solution of 4-(4-hydroxystyryl) methylpyridinium tosylate (HMPT) (Molecular Biosciences) at 100 μg/ml in TSA Amplification Diluent (NEN Life Science Products, Inc.). Sections were then washed in PBS (three X for five minutes each wash) and either mounted in PBS:Glycerol (1:1) or dehydrated in graded ethanol solutions (0%, 70%, 95%, 100%, 100% three minutes each) and xylene (two X for three minutes each) mounted in Permount (a non-aqueous mounting medium; Fisher Scientific, Pittsburgh, Pa.) and coverslipped. The fluorescent signal intensity of slides mounted in aqueous (PBS:Glycerol) or non-aqueous (Permount) media was compared using a Zeiss Axioskop microscope equipped with epifluorescence and a 360 nm excitation/>400 nm emission filter set. Photomicrographs were taken using a Zeiss MC100 camera system and standard two second exposures.

For “4-(4-hydroxystyryl) pyridinium propylsulfonate [HPPS]”, the “concentration of conjugated wheat germ agglutinin used/required for wheat germ agglutinin localization” value in data set [1] was 0.5 µg/mL. In addition, the “fluorescence labeling of tissue sections after HRP-catalyzed deposition” value in data set [1] is “intense HPPS fluorescence was localized to intestinal goblet cells”; in data set [1] (listed as EPPS), “intense EPPS fluorescence localized to intestinal goblet cells”.
Consider `C[n+]1ccc(C=Cc2ccc(O)cc2)cc1.Cc1ccc(S(=O)(=O)[O-])cc1` [HMPT, 4-(4-hydroxystyryl) methylpyridinium tosylate], for which, in data set [2] (Permount, non-aqueous), the “background signal / signal/noise ratio when mounted in non-aqueous media” value is “background signal is reduced resulting in a better signal/noise ratio”. Besides, the “localization of wheat germ agglutinin reactivity” value in data set [2] (aqueous and non-aqueous medium) is “Strong wheat germ agglutinin reactivity was localized to the intestinal epithelium under both conditions”. In addition, the “fluorescence in aqueous solution” value in data set [2] (section of mouse intestine, aqueous (FIG. 2A)) was “bright fluorescence in aqueous solution”. For the same compound, in data set [2] (section of mouse intestine, non-aqueous (FIG. 2B)), the “reaction product fluorescence in non-aqueous medium” value is “bright reaction product in a non-aqueous medium”. For the same compound, the “fluorescence intensity of reaction product in aqueous versus non-aqueous medium” value in data set [2] (sections of mouse intestine, PBS:Glycerol (aqueous) vs Permount (non-aqueous), two second exposures) was “equally bright in aqueous (FIG. 2A) and non-aqueous (FIG. 2B) medium”.
